According to patent publication US8153645B2, “Treating pain using selective antagonists of persistent sodium current” (Allergan, Inc., priority 2003, dated 2012):

Key:
[1] = tested on: tactile allodynia; test: Spinal nerve ligation (Chung) model of neuropathic pain, tactile allodynia by von Frey hairs; assay type: in vivo; conditions: rat, 10 mg/kg i.p., 30 minutes after dosing, FIG. 6
Procedure: Paw withdrawal threshold (gram force) was determined using von Frey filament stimulation and the Dixon's up-down method. Allodynic response was measured at baseline (0 min) and at 15, 30, 60 and 120 min after of 10 mg/kg IP injection of Compound 1 or vehicle control. Percent reversal of allodynia compared with non-injected rats was calculated. Six rats were used at each dose. Data were analyzed by analysis of variance and Dunnett's test reversal of allodynia was considered significant if P<0.05
Compound 1 was tested in a rodent model of neuropathic pain known to be predictive of clinical activity, see, e.g., Kim & Chung, supra, (1992). Following ligation of two spinal nerves, the animals developed sensitivity to normally non-painful stimuli such as touch. The ability of Compound 1 to reverse this sensitivity, called allodynia, was tested 30 minutes after dosing by intraperitoneal administration.
The animal model used involved the surgical ligation of the L5 (and optionally the L6) spinal nerves on one side in experimental animals. […]
Tactile allodynia was measured prior to and 30 minutes after drug administration using von Frey hairs, which are a series of fine hairs with incremental differences in stiffness. […] The applied force has been calculated to range from 0.41 to 15.1 grams. […]

[2] = molecular target: T1, Nav1.3 sodium channel (Homo sapiens, UniProt Q9NY46)
[3] = molecular target: T1, Nav1.3 sodium channel; test: High-throughput persistent sodium current assay (VIPR, FRET dyes): Na+-dependent depolarization of HEK-Nav1.3 cells; assay type: cell-based; set-up: expressed in transfected cells; host or cells: HEK-293 (human embryonic kidney) cells, G418-selected (HEK-Nav1.3); conditions: 10 μM tetracaine, HEK-Nav1.3, FIG. 2
[4] = 3 μM, 200 msec pulse to 0 mV from -90 mV, FIG. 4

T1 sequence (Q9NY46 whole entry): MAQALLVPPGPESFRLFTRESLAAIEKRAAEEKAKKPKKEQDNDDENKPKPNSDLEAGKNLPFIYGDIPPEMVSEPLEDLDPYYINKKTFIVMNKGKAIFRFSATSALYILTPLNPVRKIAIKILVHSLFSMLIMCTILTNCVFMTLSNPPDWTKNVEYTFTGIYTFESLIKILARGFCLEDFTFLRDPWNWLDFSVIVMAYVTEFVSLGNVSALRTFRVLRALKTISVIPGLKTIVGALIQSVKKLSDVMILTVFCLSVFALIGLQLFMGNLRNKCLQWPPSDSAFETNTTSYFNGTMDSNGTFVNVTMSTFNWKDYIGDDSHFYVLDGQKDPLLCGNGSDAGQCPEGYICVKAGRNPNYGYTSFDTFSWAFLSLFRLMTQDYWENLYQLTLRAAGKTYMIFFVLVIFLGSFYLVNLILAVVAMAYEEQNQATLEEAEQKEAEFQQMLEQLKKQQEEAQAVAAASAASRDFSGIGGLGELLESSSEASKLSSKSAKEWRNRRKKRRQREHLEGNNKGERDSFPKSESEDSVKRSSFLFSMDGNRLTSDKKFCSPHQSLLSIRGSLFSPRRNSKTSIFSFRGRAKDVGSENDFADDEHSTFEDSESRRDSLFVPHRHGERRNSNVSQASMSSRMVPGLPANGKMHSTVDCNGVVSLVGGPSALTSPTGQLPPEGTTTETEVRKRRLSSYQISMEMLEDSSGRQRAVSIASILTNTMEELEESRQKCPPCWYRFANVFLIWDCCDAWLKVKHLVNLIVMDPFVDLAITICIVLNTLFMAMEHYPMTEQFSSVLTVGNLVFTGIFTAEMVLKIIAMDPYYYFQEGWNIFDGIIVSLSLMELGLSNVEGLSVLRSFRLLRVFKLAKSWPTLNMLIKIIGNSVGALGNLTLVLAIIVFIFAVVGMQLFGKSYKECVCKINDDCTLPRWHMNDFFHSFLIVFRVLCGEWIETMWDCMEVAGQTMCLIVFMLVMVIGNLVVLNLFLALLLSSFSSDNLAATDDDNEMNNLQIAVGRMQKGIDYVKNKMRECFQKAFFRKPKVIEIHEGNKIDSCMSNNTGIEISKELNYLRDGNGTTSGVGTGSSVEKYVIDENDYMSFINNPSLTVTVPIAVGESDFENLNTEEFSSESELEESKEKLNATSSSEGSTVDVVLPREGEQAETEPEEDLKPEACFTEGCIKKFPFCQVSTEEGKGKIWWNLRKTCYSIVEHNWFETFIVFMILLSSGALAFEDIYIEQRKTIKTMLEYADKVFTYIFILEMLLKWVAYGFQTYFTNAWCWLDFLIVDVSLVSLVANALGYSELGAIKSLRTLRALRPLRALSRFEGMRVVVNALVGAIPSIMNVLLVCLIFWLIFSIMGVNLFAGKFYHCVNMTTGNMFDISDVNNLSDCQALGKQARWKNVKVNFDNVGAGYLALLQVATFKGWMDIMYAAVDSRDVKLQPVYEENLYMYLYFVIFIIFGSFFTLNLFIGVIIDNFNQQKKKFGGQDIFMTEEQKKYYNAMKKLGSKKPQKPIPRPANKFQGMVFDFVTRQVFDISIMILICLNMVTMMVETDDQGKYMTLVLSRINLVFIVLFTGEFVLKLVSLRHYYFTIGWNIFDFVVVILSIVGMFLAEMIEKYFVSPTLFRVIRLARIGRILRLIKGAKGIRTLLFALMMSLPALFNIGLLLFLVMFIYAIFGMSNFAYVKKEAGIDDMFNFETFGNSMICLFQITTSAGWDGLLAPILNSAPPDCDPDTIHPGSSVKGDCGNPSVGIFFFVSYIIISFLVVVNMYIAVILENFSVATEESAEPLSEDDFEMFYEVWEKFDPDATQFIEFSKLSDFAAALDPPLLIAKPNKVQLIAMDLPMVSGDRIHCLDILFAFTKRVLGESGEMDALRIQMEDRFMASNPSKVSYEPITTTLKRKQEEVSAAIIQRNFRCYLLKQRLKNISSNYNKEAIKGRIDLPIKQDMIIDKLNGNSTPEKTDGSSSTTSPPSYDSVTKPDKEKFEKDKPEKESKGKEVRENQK

Block of persistent current [2, 4] [%] | Reduction of transient current [2, 4] [%] | Hillslope, persistent current (Ip) ([2]; Hill equation fit, FIG. 5) | Hillslope, transient Na+ current (It) ([2]; Hill equation fit, FIG. 5) | Inhibition of Na+-dependent change in Rf/Ri (depolarization) [3] | SMILES | Reduction in allodynia with respect to a vehicle control [1] [%]
99 | 16 | 0.733 | 0.354 |  | O=C(NCCCCc1ccccc1)c1cccs1 [Compound 1, thiophene-2-carboxylic acid (4-phenyl-butyl)-amide] | 80
 |  |  |  | inhibited | CCCCNc1ccc(C(=O)OCCN(C)C)cc1 [Tetracaine, tetracaine] | 
